Reference: US20060252740A1 (priority 2005, published 2006)

Legend:
[1] = test system: lung cancer cells with wild-type Rb; settings: cited from earlier work
[2] = test system: adult patients with solid tumors; settings: cited from earlier work
[3] = test system: patients with advanced solid tumors; settings: cited from earlier work
[4] = test system: SKBr3 breast cancer cells; settings: cited from earlier work
[5] = test system: MEXF 276L melanoma cells; settings: cited from earlier work
[6] = test system: patients with advanced solid tumors; settings: cited from earlier work; remark: listed apart in the source
[7] = test system: NSCLC cells; settings: cited from earlier work
[8] = test system: plasma protein; assay: Plasma protein binding, in vitro assays using human blood; assay type: in vitro ADME
[9] = test system: patients with solid tumors and lymphomas; settings: cited from earlier work
[10] = test system: cytochrome P450 enzymes; assay: In vitro metabolism studies; assay type: in vitro ADME
[11] = Dose limiting toxicity and drug-related toxicities in dose-escalating clinical trial; assay type: in vivo, human; settings: twice weekly for two out of three weeks (Days 1, 4, 8, 11; 21 day cycle)
Protocol: Eighteen patients were treated in accordance with this protocol.

[12] = test system: patients with advanced malignancies incl. metastatic melanoma; settings: cited from earlier work
[13] = Stability of diluted drug product; assay type: physicochemical; settings: drug product at a dilution of 1:7, room temperature
[14] = test system: diffuse GFP positive MM lesions; settings: SCID/NOD mice; cited from earlier work
[15] = highest dose level (450 mg/m^2)

Structure (SMILES): C=CCNC1=C2C[C@@H](C)C[C@H](OC)[C@H](O)[C@@H](C)/C=C(\C)[C@H](OC(N)=O)[C@@H](OC)/C=C\C=C(/C)C(=O)NC(=CC1=O)C2=O [17-AAG, 17-Allylamino-17-demethoxygeldanamycin]
- effect of exposure on client proteins [1]: degradation of cdk4, cdk6, and cyclin E
- maximum tolerated dose (MTD) and recommended Phase 2 dose ([2]; daily for 5 days every 3 weeks): 40 mg/m^2
- dose limiting toxicity ([2]; daily x5 schedule): reversible hepatotoxicity
- objective tumor responses ([2]; doses up to 110 mg/m^2): No objective tumor responses
- VZ ([2]; in vivo): 93 L/m^2
- Clearance ([2]; patients treated at 56 mg/m^2): 19.9 L/h/m^2
- average AUC ([2]; patients treated at 56 mg/m^2): 6,708 nM*h
- toxicities observed ([3]; dose of 395 mg/m^2): nausea and vomiting secondary to pancreatitis and grade 3 fatigue
- 17-AAG metabolized to 17-AG (metabolic clearance) ([3]; population PK analysis): 46.4%
- Vd (volume of distribution), central compartment ([3]; population PK analysis): 24.2 L
- Vd (volume of distribution), peripheral compartment ([3]; population PK analysis): 89.6 L
- objective tumor responses ([3]; to date): No objective tumor responses
- effect of exposure on client proteins [4]: depletion of erbB2 and destabilization of Raf-1 and mutant p53
- effect of exposure on client proteins [5]: depletion of Hsp90 and down-regulation of Raf-1 and erbB2
- dose limiting toxicities ([6]; at the 80 mg/m^2 dose, daily x5): hepatitis, abdominal pain, nausea, dyspnea
- Cmax ([6]; read-out: plasma Cmax, 80 mg/m^2 dose level): 2700 nM
- effect of exposure on client proteins [7]: depletion of erbB1 (EGFR) and erbB2 (p185) levels
- protein bound in plasma [8]: approximately 95%
- levels of Hsp90 client proteins ([9]; during therapy): unchanged during therapy
- objective tumor responses ([9]; to date): No objective tumor responses
- MTD ([9]; weekly 17-AAG, 3 weeks out of a 4 week cycle): 308 mg/m^2
- dose reached without significant toxicity ([9]; weekly dosing): 112 mg/m^2
- enzymes involved in metabolism [10]: implicate the involvement of cytochrome P450 enzymes
- 17-AAG dose employed without reaching dose limiting toxicity (DLT) in any treated patient [11]: 275 mg/m^2
- mean peak plasma level ([12]; 450 mg/m^2): 8,998 μg/L
- mean volume of distribution ([12]; 450 mg/m^2): 142.6 L
- induction of the co-chaperone protein Hsp70 ([12]; 320-450 mg/m^2/week): 8 of 9
- CDK4 depletion in tumor biopsies ([12]; at 24 hours): 8 out of 9
- Raf-1 depletion in tumor biopsies ([12]; at 24 hours): 4 out of 6
- period plasma 17-AAG concentrations remained above 120 nM [12, 15]: > 24 h
- plasma 17-AAG concentrations [12, 15]: exceeded 10 μM
- complete or partial responses ([12]; in vivo): No complete or partial responses
- dose at which dose limiting toxicity was observed ([12]; once weekly, grade ¾ elevation of AST): 450 mg/m^2/week
- stable disease ([12]; patients treated at 320-450 mg/m^2): two showed radiologically documented long term stable disease
- stability after dilution [13]: up to 10 hours
- survival analysis [14]: significantly prolonged median overall survival
